Source: patent publication US20240122939A1, “THERAPIES FOR THE TREATMENT OF DISEASES AND DISORDERS ASSOCIATED WITH ABNORMAL EXPRESSION OF CDKL5 GENE” (THE REGENTS OF THE UNIVERSITY OF CALIFORNIA, priority 2021, published 2024)

System: CDD spheroids (cortical neurons and astrocytes derived from human iPSCs)
Assay: HT calcium oscillation assay in CDD spheroids (high throughput screening, Scalar Perturbation and Parameter Recovery analysis)
Assay type: cell-based
Conditions: 1112 compounds screened at 1 μM, chronic treatment for 3 weeks, 3-week-old CDD spheroids; higher PR = closer to control
Excerpt: CDD High Throughput Screening (HTS) platform development. An HTS platform for CDD was developed. Briefly, the HTS system relies on spheroids derived from human iPSCs that comprise a balanced culture of cortical neurons and astrocytes. These spheroids display quantifiable, robust and uniform spontaneous calcium oscillations which correlated with synchronous neuronal activity. The CDD HTS platform uses cells derived from CDD1 and Controll lines.
Chemical library and drug treatment. The compound library used in this study comprises a unique collection of 1112 compounds with biological activity used for neurologic research and associated assays; of which two-thirds are FDA-approved drugs (SelleckChem, Houston, TX, USA). Three-week-old CDD spheroids received chronic treatment three-times per week, during three weeks. All compounds were tested at 1 μM in three technical replicates; vehicle controls (DMSO or water) were included in multiple replicates. The dose-response assay comprehended six concentrations ranging from 0.0003 to 1 μM, in four technical replicates.
HT Calcium oscillation assay. To assess the intracellular calcium oscillations in CDD and control cortical spheroids, cells were incubated with the FLIPR Calcium 6 Kit (Molecular Devices LLC, San Jose, CA, USA). Briefly, cells were pre-loaded with Calcium 6 Dye for 2 h prior to the recording. The dye interacts with intracellular calcium and changes in fluorescence occur according to increased or decreased calcium concentration. The peaks observed correlate with synchronous neural activity in the spheroids. The kinetics of intracellular calcium oscillations was determined using the FLIPR Tetra High-Throughput Cellular Screening System (Molecular Devices LLC): the fluorescence intensity was set at 515-575 nm following excitation at 470-495 nm for 10 min at a frequency of 3 Hz; the exposure time per read was 0.4 s, the gain was set to 30, and the excitation intensity was set to 40%. The instrument temperature was kept at 37° C.
HT screening analysis. A multiparametric analysis of representative descriptors of the intracellular calcium oscillation was performed. The features used include: 1. Peak count; 2. Average (Avg) Peak Height (Amplitude); 3. Peak Height standard deviation (s.d.); 4. Avg Peak Width, 5. Peak Width s.d.; 6. Avg Peak Spacing; 7. Peak Spacing s.d.; 8. Avg Peak Rise Time; 9. Peak Rise Time s.d.; 10. Avg Peak Decay Time; 11. Peak Decay Time s.d.; 12. Class 1 Peak Count; 13. Class 2 Peak Cound; 14. Class 3 Peak Count; 15. Singular Peak Count; 16. Irregular Peak Count, and 17. Subpeak Count. For peak classification, Class 1 Peak display 100-66% of max peak height, while Class 2 and Class 3, 66-33% and 33-15%, respectively. To determine the Scalar Perturbation, the data was normalized by dividing raw parameters by the median values of controls from the same plate. Each parameter was standardized by z-score of normalized and log-transformed control values. Next, the Euclidean norm between selected parameters was calculated and averaged the Scalar Perturbation score among replicates. In the Parameter Recovery, max/min boundaries from vehicle Control were determined from corresponding plate. For each replicate, we summed the number of parameter found to be within the max/min boundaries of the Control. Next, for each replicate we divided the sum of the recovered parameter by the total number of parameters and established the percentage of parameters recovered to the Control boundaries and, averaged Parameter Recovery percentages between compound replicates.
Next, a unique library of 1112 neuronal signaling compounds was screened by chronically treating 3-week-old CDD spheroids in triplicate at 1 μM for 3 weeks (FIG. 5D; FIG. 10). The calcium peaks' baseline features were determined solely in the presence of each vehicle (DMSO or water) to avoid any confounding effect on the oscillatory activity (FIG. 5E and FIG. 10A-D). […]
With `COc1ccc2c(c1)[nH]c1c(C)nccc12` [Harmine] the “PR ranking (Parameter Recovery)” value was “second”.

Same assay, conditions: 1112 compounds screened at 1 μM, chronic treatment for 3 weeks, 3-week-old CDD spheroids; smaller SP = closer to control
With `N#Cc1ccc2[nH]c(O)c(-c3ccc(CN4CCOCC4)cn3)c2c1` [AZD1080] the “SP ranking (Scalar Perturbation)” value was 12. In the case of `O=C(O[C@H]1CN2CCC1CC2)N1CCc2ccccc2[C@@H]1c1ccccc1` [Solifenacin], the “SP ranking (Scalar Perturbation)” value is reported as 28. In the case of `C[C@H](NC(=O)CCC(F)(F)F)C(=O)N[C@@H]1C(=O)N(CCO)c2ncccc2-c2ccccc21` [Crenigacestat], the “SP ranking (Scalar Perturbation)” value is reported as 5. In the case of `COc1ccc2c(c1)[nH]c1c(C)nccc12` [Harmine], the “SP ranking (Scalar Perturbation)” value is reported as “first”. For `COc1cc2c(cc1OC)CC(=O)N(CCCN(C)C[C@H]1Cc3cc(OC)c(OC)cc31)CC2` [Ivabradine], the “SP ranking (Scalar Perturbation)” value was 10.

Same assay, conditions: Homo sapiens, iPSC; six concentrations 0.0003 to 1 μM, nonlinear regression fit, n=4 spheroids per concentration; read-out: EC50 (dose-response of Parameter Recovery percentage)
Work on `C[C@H](NC(=O)CCC(F)(F)F)C(=O)N[C@@H]1C(=O)N(CCO)c2ncccc2-c2ccccc21` [Crenigacestat] yielded an EC50 of 883 nM. With `COc1cc2c(cc1OC)CC(=O)N(CCCN(C)C[C@H]1Cc3cc(OC)c(OC)cc31)CC2` [Ivabradine] the EC50 was 41 nM.

System: CDD spheroids
Assay: HT cell viability (CellTiter Glo 3D Cell Viability Assay)
Assay type: cell-based, human
Conditions: 1 μM, 3 weeks treatment, CDD spheroids at 6 weeks of differentiation
Experimental: HT cell viability. To determine any cytotoxic effect of the drug treatment on the neural culture, the CellTiter Glo 3D Cell Viability Assay (Promega, Madison, WI, USA) was performed according to the manufacturer's instructions. Briefly, following the intracellular calcium oscillation recording, the spheroids were extensively washed with PBS for removal of the calcium dye. Next, cells were incubated with CellTiter Glo Reagent for 30 min at room temperature and the number of viable cells was estimated based on the amount of ATP present in the culture. The luminescent signal was captured using a PHERAstar FSX Microplate Reader (BMG Labtech, Ortenberg, Germany).
Next, a unique library of 1112 neuronal signaling compounds was screened by chronically treating 3-week-old CDD spheroids in triplicate at 1 μM for 3 weeks (FIG. 5D; FIG. 10). The calcium peaks' baseline features were determined solely in the presence of each vehicle (DMSO or water) to avoid any confounding effect on the oscillatory activity (FIG. 5E and FIG. 10A-D). Similarly, the result from each compound was normalized against its vehicle control (DMSO or water). To detect potential toxic effects of specific drugs, spheroid size and cell viability were monitored (FIG. 5F-G).
In the case of `N#Cc1ccc2[nH]c(O)c(-c3ccc(CN4CCOCC4)cn3)c2c1` [AZD1080], the “effect on cell viability” value is reported as “no effect on cell viability”. With `O=C(O[C@H]1CN2CCC1CC2)N1CCc2ccccc2[C@@H]1c1ccccc1` [Solifenacin] the “effect on cell viability” value was “no effect on cell viability”. With `C[C@H](NC(=O)CCC(F)(F)F)C(=O)N[C@@H]1C(=O)N(CCO)c2ncccc2-c2ccccc21` [Crenigacestat] the “effect on cell viability” value was “no effect on cell viability”. In the case of `COc1ccc2c(c1)[nH]c1c(C)nccc12` [Harmine], the “effect on cell viability” value is reported as “excluded from the list of top candidates due to its effect on cell survival”. In the case of `COc1cc2c(cc1OC)CC(=O)N(CCCN(C)C[C@H]1Cc3cc(OC)c(OC)cc31)CC2` [Ivabradine], the “effect on cell viability” value is reported as “no effect on cell viability”.

System: CDD spheres
Assay: Cellular migration after drug treatment (outward radial migration from plated spheres)
Assay type: cell-based, human
Conditions: 1 μM, spheres treated for 3 weeks, migration evaluated 8 days after plating
Experimental: Cellular migration. Three-week old spheres were treated for 3 additional weeks with 1 μM of selected compounds. Cellular migration was evaluated 8 days after spheres were plated onto poly-L-ornithine/laminin-coated plates. The outward radial migration was measured using NeuronJ plugin on the Fiji platform. Next, these lead compounds were investigated for their ability to ameliorate CDD cellular phenotype. Following a similar pharmacological strategy, spheres were treated for 3 weeks, and cellular migration was evaluated after plating.
With `N#Cc1ccc2[nH]c(O)c(-c3ccc(CN4CCOCC4)cn3)c2c1` [AZD1080] the “rescue of outward radial cellular migration defects in CDD” value (shortened to “rescue”) was “able to rescue outward radial cellular migration defects”. With `O=C(O[C@H]1CN2CCC1CC2)N1CCc2ccccc2[C@@H]1c1ccccc1` [Solifenacin] the “rescue” value was “able to rescue outward radial cellular migration defects”. In the case of `C[C@H](NC(=O)CCC(F)(F)F)C(=O)N[C@@H]1C(=O)N(CCO)c2ncccc2-c2ccccc21` [Crenigacestat], the “rescue” value is reported as “able to rescue outward radial cellular migration defects”. For `COc1cc2c(cc1OC)CC(=O)N(CCCN(C)C[C@H]1Cc3cc(OC)c(OC)cc31)CC2` [Ivabradine], the “rescue” value was “able to rescue outward radial cellular migration defects”.

System: Cdkl5 knockout mouse neurons
Assay: not given
Conditions: cited from earlier work
In the case of `COc1ccc2c(c1)[nH]c1c(C)nccc12` [Harmine], the “restoration of CDKL5-dependent synaptic defects” value is listed as “restore CDKL5-dependent synaptic defects”.
